pIC50: −log10 of the molar value. Where a name gives a salt, the structure may show the parent alone.
biological target: PDE10A (Homo sapiens, UniProt Q9Y233); assay: Phosphodiesterase assay (TR-FRET, LANCE cAMP kit); assay type: biochemical; settings: PDE10A (BPS Bioscience) 200 pg/well, biotin-cAMP substrate, 60 min at room temperature
Description: (§1) The PDE assay is based on the homogenous time-resolved fluorescence resonance energy transfer (TR-FRET) technology (LANCE® from Perkin Elmer). […] When there is PDE activity, resulting in the degradation of the cyclic nucleotide, the complex is not formed and a decrease in signal is observed.
(§2) The phosphodiesterase assay was developed using the LANCE® cAMP kit (PerkinElmer). The assay buffer contained HBSS with 5 mM HEPES, 0.1% BSA, and 1.5 mM MgCl2, pH 7.4. PDE10A (BPS Bioscience) was used at 200 pg/well (with a specific activity of 3200 pmole/min/μg with assay conditions: 10 mM Tris-HCl, pH7.4, 10 mM MgCl2, 1 mM MnCl2, 200 μM cAMP, 2.5 kU 5′ nucleotidase, 37° C., 20 min). […] Chemical compounds were dissolved in DMSO (final concentration 2% (v/v)).
(§3) In a 384-well plate, 2 μL inhibitor and 3 μL PDE were added to the well, followed by the addition of 5 μl substrate biotinylated cAMP (1:5). After 60 min incubation at room temperature, 10 μL of assay detection mixture was added to the assay plate. After 1 h at room temperature, the signal was measured on EnVision™ (Perkin Elmer).

PDE10A (Homo sapiens, UniProt Q9Y233), sequence (Q9Y233 whole entry, looked up): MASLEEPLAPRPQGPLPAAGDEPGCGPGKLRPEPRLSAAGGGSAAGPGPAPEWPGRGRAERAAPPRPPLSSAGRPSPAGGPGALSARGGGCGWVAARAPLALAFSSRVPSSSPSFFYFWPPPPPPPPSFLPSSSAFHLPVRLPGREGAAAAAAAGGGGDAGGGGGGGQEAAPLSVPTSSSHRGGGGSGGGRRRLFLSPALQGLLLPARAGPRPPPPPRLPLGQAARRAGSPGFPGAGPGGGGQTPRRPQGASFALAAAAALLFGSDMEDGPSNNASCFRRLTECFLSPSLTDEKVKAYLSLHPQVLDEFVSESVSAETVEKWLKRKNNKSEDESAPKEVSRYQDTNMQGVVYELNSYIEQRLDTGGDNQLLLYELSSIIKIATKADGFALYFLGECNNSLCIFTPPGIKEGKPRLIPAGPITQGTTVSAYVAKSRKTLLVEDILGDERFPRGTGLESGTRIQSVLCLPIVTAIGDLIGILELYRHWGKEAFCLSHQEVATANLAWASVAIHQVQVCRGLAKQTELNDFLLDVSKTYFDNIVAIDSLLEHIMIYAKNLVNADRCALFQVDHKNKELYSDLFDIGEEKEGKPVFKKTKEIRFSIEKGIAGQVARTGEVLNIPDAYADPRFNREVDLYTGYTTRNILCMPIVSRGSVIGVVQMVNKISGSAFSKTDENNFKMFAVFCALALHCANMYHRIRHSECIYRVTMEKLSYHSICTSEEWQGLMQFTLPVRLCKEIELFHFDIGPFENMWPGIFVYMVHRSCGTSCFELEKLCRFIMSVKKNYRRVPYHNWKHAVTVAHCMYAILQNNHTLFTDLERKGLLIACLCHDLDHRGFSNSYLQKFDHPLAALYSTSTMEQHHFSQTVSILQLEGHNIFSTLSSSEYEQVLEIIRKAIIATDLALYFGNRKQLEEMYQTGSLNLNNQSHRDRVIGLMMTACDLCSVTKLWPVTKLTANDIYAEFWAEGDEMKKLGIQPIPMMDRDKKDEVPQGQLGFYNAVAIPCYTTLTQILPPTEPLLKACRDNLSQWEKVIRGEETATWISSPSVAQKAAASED

First: CCCc1nc(O)c(Cc2ccc3nc(C)ccc3c2)c2cc(OC)c(OC)cc12 [Compound 80, 6,7-dimethoxy-4-((2-methylquinolin-6-yl)methyl)-1-propylisoquinolin-3-ol dihydrochloride]
Second: CCc1nc(O)c(Cc2ccc3ccccc3c2)c2cc(OC)c(OC)cc12 [Compound 19, 1-ethyl-6,7-dimethoxy-4-(naphthalen-2-ylmethyl)isoquinolin-3-ol hydrochloride]
The pIC50 of the first is 0.53 log units higher: 8.49 for the first, 7.96 for the second. The first is the more potent here.

COc1cc2c(C)nc(O)c(Cc3cccc(Oc4ccccc4)c3)c2cc1OC [Compound 4, 6,7-dimethoxy-1-methyl-4-(3-phenoxybenzyl)isoquinolin-3-ol hydrochloride] and COc1cc2c(C)nc(O)c(Cc3cncc(-c4ccccc4)c3)c2cc1OC [Compound 15, 6,7-Dimethoxy-1-methyl-4-((5-phenylpyridin-3-yl)methyl)isoquinolin-3-ol dihydrochloride] are within 0.2 log units of each other in pIC50: 6.85 for the first, 7.01 for the second.

CCCc1nc(O)c(Cc2cc3cc4c(cc3nc2NCC)OCO4)c2cc(OC)c(OC)cc12 [Compound 64, 4-((6-(ethylamino)-[1,3]dioxolo[4,5-g]quinolin-7-yl)methyl)-6,7-dimethoxy-1-propylisoquinolin-3-ol dihydrochloride] and CCCNc1nc2ccc(OC)cc2cc1Cc1c(O)nc(CCC)c2cc(OC)c(OC)cc12 [Compound 52, 6,7-dimethoxy-4-((6-methoxy-2-(propylamino)quinolin-3-yl)methyl)-1-propylisoquinolin-3-ol dihydrochloride] are within 0.2 log units of each other in pIC50: 8.92 for the first, 8.82 for the second.

CCCNc1nc2ccc(OC)cc2cc1Cc1c(O)nc(C)c2cc(OC)c(OC)cc12 [Compound 38, 6,7-dimethoxy-4-((6-methoxy-2-(propylamino)quinolin-3-yl)methyl)-1-methylisoquinolin-3-ol dihydrochloride] and CCc1nc(O)c(Cc2cc3cc(OC)ccc3nc2NCCOC)c2cc(OC)c(OC)cc12 [Compound 77, 1-Ethyl-6,7-dimethoxy-4-((6-methoxy-2-(2-methoxyethylamino)quinolin-3-yl)methyl)isoquinolin-3-ol dihydrochloride] are within 0.2 log units of each other in pIC50: 8.57 for the first, 8.70 for the second.

Going from COc1ccc(-c2cccc(Cc3c(O)nc(C)c4cc(OC)c(OC)cc34)n2)cc1 [Compound 13, 6,7-dimethoxy-4-((6-(4-methoxyphenyl)pyridin-2-yl)methyl)-1-methylisoquinolin-3-ol dihydrochloride] to COc1cc2c(C)nc(O)c(Cc3ccc4cnccc4c3)c2cc1OC [Compound 21, 4-(Isoquinolin-6-ylmethyl)-6,7-dimethoxy-1-methylisoquinolin-3-ol dihydrochloride], the pIC50 falls from 7.30 to 6.48 (0.82 log units). The first is the more potent here.

Going from CCNc1nc2ccc(OC)cc2cc1Cc1c(O)nc(C(C)C)c2cc(OC)c(OC)cc12 [Compound 47, 4-((2-(ethylamino)-6-methoxyquinolin-3-yl)methyl)-1-isopropyl-6,7-dimethoxyisoquinolin-3-ol dihydrochloride] to CCNc1nc2ccc(OC)cc2cc1Cc1c(O)nc(CNS(C)(=O)=O)c2cc(OC)c(OC)cc12 [Compound 58, N-((4-((2-(ethylamino)-6-methoxyquinolin-3-yl)methyl)-3-hydroxy-6,7-dimethoxyisoquinolin-1-yl)methyl)methanesulfonamide dihydrochloride], the pIC50 falls from 7.96 to 6.66 (1.30 log units).

Going from COc1cc2c(C(C)C)nc(O)c(Cc3cnc4ccccc4c3)c2cc1OC [Compound 79, 1-Isopropyl-6,7-dimethoxy-4-(quinolin-3-ylmethyl)isoquinolin-3-ol dihydrochloride] to COc1cc2c(C)nc(O)c(Cc3cccc4cnccc34)c2cc1OC [Compound 22, 4-(Isoquinolin-5-ylmethyl)-6,7-dimethoxy-1-methylisoquinolin-3-ol dihydrochloride], the pIC50 falls from 7.06 to 6.48 (0.58 log units). The first is the more potent here.

biological target: PDE10A; assay: Phosphodiesterase assay (TR-FRET, LANCE cAMP kit); assay type: biochemical; settings: PDE10A (BPS Bioscience) 200 pg/well, biotin-cAMP substrate, 60 min at room temperature
Description: as §1, §2, §3

Going from CCCc1nc(O)c(Cc2cc3cc(OC)ccc3nc2NC(C)C)c2cc(OC)c(OC)cc12 [Compound 53, 4-((2-(Isopropylamino)-6-methoxyquinolin-3-yl)methyl)-6,7-dimethoxy-1-propylisoquinolin-3-ol dihydrochloride] to CCc1nc(O)c(Cc2cc3cc(OC)ccc3nc2NC)c2cc(OC)c(OC)cc12 [Compound 39, 1-ethyl-6,7-dimethoxy-4-((6-methoxy-2-(methylamino)quinolin-3-yl)methyl)isoquinolin-3-ol dihydrochloride], the pIC50 falls from 9.10 to 8.80 (0.30 log units). The first is the more potent here.

First: CCNc1nc2cc(F)c(OC)cc2cc1Cc1c(O)nc(CC)c2cc(OC)c(OC)cc12 [Compound 82, 1-Ethyl-4-((2-(ethylamino)-7-fluoro-6-methoxyquinolin-3-yl)methyl)-6,7-dimethoxyisoquinolin-3-ol dihydrochloride]
Second: CCCc1nc(O)c(Cc2cc3cc(OC)c(F)cc3nc2NCC)c2cc(OC)c(OC)cc12 [Compound 70, 4-((2-(Ethylamino)-7-fluoro-6-methoxyquinolin-3-yl)methyl)-6,7-dimethoxy-1-propylisoquinolin-3-ol dihydrochloride]
The pIC50 of the first is 0.23 log units higher: 8.85 for the first, 8.62 for the second.

Going from CCCc1nc(O)c(Cc2cc3cc(OCC4CC4)ccc3nc2NCCNC(C)=O)c2cc(OC)c(OC)cc12 [Compound 83, N-(2-(6-(cyclopropylmethoxy)-3-((3-hydroxy-6,7-dimethoxy-1-propylisoquinolin-4-yl)methyl)quinolin-2-ylamino)ethyl)acetamide dihydrochloride] to CCc1nc(O)c(Cc2cc3cc(OC)ccc3nc2NCCNC(C)=O)c2cc(OC)c(OC)cc12 [Compound 69, N-(2-(3-((1-Ethyl-3-hydroxy-6,7-dimethoxyisoquinolin-4-yl)methyl)-6-methoxyquinolin-2-ylamino)ethyl)acetamide dihydrochloride], the pIC50 rises from 8.00 to 8.82 (0.82 log units).

Compared with CCc1nc(O)c(Cc2ccc3nc(C)ccc3c2)c2cc(OC)c(OC)cc12 [Compound 81, 1-Ethyl-6,7-dimethoxy-4-((2-methylquinolin-6-yl)methyl)isoquinolin-3-ol dihydrochloride], CCc1nc(O)c(Cc2cnc3ccc(OC)cc3c2)c2cc(OC)c(OC)cc12 [Compound 85, 1-ethyl-6,7-dimethoxy-4-((6-methoxyquinolin-3-yl)methyl)isoquinolin-3-ol dihydrochloride] is 1.28 log units higher in pIC50: 8.12 for the first, 9.40 for the second. The second is the more potent here.

CCc1nc(O)c(Cc2cc3cc(OC)ccc3nc2NCc2ccccc2)c2cc(OC)c(OC)cc12 [Compound 44, 4-((2-(Benzylamino)-6-methoxyquinolin-3-yl)methyl)-1-ethyl-6,7-dimethoxyisoquinolin-3-ol dihydrochloride] and CNc1nc2ccc(OC)cc2cc1Cc1c(O)nc(C)c2cc(OC)c(OC)cc12 [Compound 37, 6,7-Dimethoxy-4-((6-methoxy-2-(methylamino)quinolin-3-yl)methyl)-1-methyl-isoquinolin-3-ol dihydrochloride] are within 0.2 log units of each other in pIC50: 8.10 for the first, 8.22 for the second.

Compared with CCCc1nc(O)c(Cc2cc3cc(OC)ccc3nc2C(F)(F)F)c2cc(OC)c(OC)cc12 [Compound 72, 6,7-Dimethoxy-4-((6-methoxy-2-(trifluoromethyl)quinolin-3-yl)methyl)-1-propylisoquinolin-3-ol hydrochloride], CCCc1nc(O)c(Cc2cnc3ccc(OC)cc3c2)c2cc(OC)c(OC)cc12 [Compound 84, 6,7-Dimethoxy-4-((6-methoxyquinolin-3-yl)methyl)-1-propylisoquinolin-3-ol dihydrochloride] is 2.45 log units higher in pIC50: 6.35 for the first, 8.80 for the second.

Compared with CCNc1nc2ccc(OC)cc2cc1C(=O)c1c(O)nc(C)c2cc(OC)c(OC)cc12 [Compound 75, (2-(ethylamino)-6-methoxyquinolin-3-yl)(3-hydroxy-6,7-dimethoxy-1-methylisoquinolin-4-yl)methanone dihydrochloride], CNc1nc2cc(O)c(O)cc2cc1Cc1c(O)nc(C)c2cc(OC)c(OC)cc12 [Compound 59, 3-((3-hydroxy-6,7-dimethoxy-1-methylisoquinolin-4-yl)methyl)-2-(methylamino)quinoline-6,7-diol dihydrochloride] is higher in pIC50: < 6.00 for the first, 7.57 for the second. The second is the more potent here.

Compared with CNc1nc2cc3c(cc2cc1Cc1c(O)nc(C)c2cc(OC)c(OC)cc12)OCO3 [Compound 60, 6,7-dimethoxy-1-methyl-4-((6-(methylamino)-[1,3]dioxolo[4,5-g]quinolin-7-yl)methyl)isoquinolin-3-ol dihydrochloride], COc1cc2c(C)nc(O)c(Cc3ccc4ccccc4c3)c2cc1OC [Compound 17, 6,7-dimethoxy-1-methyl-4-(naphthalen-2-ylmethyl)isoquinolin-3-ol hydrochloride] is 0.72 log units lower in pIC50: 8.57 for the first, 7.85 for the second.

Going from CCCc1nc(O)c(Cc2ccc3ccccc3c2)c2cc(OC)c(OC)cc12 [Compound 20, 6,7-dimethoxy-4-(naphthalen-2-ylmethyl)-1-propylisoquinolin-3-ol hydrochloride] to CCc1nc(O)c(Cc2cccc(-c3ccccc3)c2)c2cc(OC)c(OC)cc12 [Compound 8, 4-([1,1′-Biphenyl]-3-ylmethyl)-1-ethyl-6,7-dimethoxyisoquinolin-3-ol hydrochloride], the pIC50 falls from 7.47 to 5.17 (2.30 log units).

First: CCCc1nc(N)c(Cc2ccc3oc4ccccc4c3c2)c2cc(OC)c(OC)cc12 [Compound 65, 4-(dibenzo[b,d]furan-2-ylmethyl)-6,7-dimethoxy-1-propylisoquinolin-3-amine hydrochloride]
Second: COc1cc2c(C)nc(O)c(Cc3cccc(-c4ccccc4)n3)c2cc1OC [Compound 12, 6,7-dimethoxy-1-methyl-4-((6-phenylpyridin-2-yl)methyl)isoquinolin-3-ol dihydrochloride]
The pIC50 of the first is 1.02 log units lower: 6.01 for the first, 7.03 for the second.
